The source of these data is ChEMBL document CHEMBL1153270, “Fluoroalkyl alpha side chain containing 3,4-diamino-cyclobutenediones as potent and orally bioavailable CXCR2-CXCR1 dual antagonists” (Bioorg Med Chem Lett, 2009).

Data set [1] deals with T1, C-X-C chemokine receptor type 2 (Homo sapiens, UniProt P25025).
T1 sequence (P25025 whole entry): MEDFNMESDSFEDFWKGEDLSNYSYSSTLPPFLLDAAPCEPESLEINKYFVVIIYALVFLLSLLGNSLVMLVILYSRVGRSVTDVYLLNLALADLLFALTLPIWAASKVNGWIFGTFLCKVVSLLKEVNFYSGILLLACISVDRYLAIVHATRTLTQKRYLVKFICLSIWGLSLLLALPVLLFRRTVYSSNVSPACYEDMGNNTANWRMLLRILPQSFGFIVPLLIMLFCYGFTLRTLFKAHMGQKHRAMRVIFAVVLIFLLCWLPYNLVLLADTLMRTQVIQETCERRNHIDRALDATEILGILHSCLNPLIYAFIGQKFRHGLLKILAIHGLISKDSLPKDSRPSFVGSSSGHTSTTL
As to the kind of experiment: Binding affinity to CXCR2.

The target of data set [2] is T2, C-X-C chemokine receptor type 1 (Homo sapiens, UniProt P25024).
T2 sequence (P25024 whole entry): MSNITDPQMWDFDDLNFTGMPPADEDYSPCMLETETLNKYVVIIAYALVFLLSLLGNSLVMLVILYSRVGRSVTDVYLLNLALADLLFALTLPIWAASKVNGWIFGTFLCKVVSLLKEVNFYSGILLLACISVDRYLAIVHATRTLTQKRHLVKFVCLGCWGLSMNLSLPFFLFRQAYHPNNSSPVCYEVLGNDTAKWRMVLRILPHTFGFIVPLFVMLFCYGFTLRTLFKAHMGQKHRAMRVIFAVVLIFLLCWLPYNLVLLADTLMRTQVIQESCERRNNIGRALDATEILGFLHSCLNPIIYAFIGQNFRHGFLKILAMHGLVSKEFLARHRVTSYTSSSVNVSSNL
As to the kind of experiment: Binding affinity to CXCR1.

Data set [3] can be described thus: AUC in po dosed rat. It counts as ADME, organism-based. The settings on record: plasma.

In the case of `CC[C@@H](Nc1c(Nc2cccc(C(=O)N(C)C)c2O)c(=O)c1=O)c1ccccc1`, the Ki stood at 4 nM in data set [1] and 40 nM in data set [2]. The AUC in data set [3] was determined as 17.4 µM·h.

Regarding `CN(C)C(=O)c1cccc(Nc2c(N[C@@H](c3ccccc3)C(F)(F)F)c(=O)c2=O)c1O`, the Ki in data set [1] is 14 nM; in data set [2], 40 nM.

In the case of `C[C@H](F)[C@@H](Nc1c(Nc2cccc(C(=O)N(C)C)c2O)c(=O)c1=O)c1ccco1`, the inhibitory constant (Ki) in data set [1] was 7 nM; in data set [2], 43 nM.

Take `CN(C)C(=O)c1cccc(Nc2c(N[C@H](CC(F)(F)F)c3ccco3)c(=O)c2=O)c1O`: the Ki came to 5 nM in data set [1] and 100 nM in data set [2].

`CN(C)C(=O)c1cccc(Nc2c(N[C@H](CCC(F)(F)F)c3ccco3)c(=O)c2=O)c1O`: in data set [1], the inhibition constant (Ki) was found to be 400 nM.

Regarding `CN(C)C(=O)c1cccc(Nc2c(N[C@@H](c3ccco3)C(F)(F)F)c(=O)c2=O)c1O`, the inhibition constant (Ki) in data set [1] stood at 2 nM; in data set [2], 6 nM.

Turning to `CN(C)C(=O)c1cccc(Nc2c(N[C@@H](c3ccc(Cl)o3)C(F)(F)F)c(=O)c2=O)c1O`, the Ki in data set [1] came out at 7 nM; in data set [2], 34 nM.

Take `CN(C)C(=O)c1cccc(Nc2c(N[C@@H](c3cc(Cl)co3)C(F)(F)F)c(=O)c2=O)c1O`: the inhibition constant Ki amounted to 5 nM in data set [1] and 20 nM in data set [2].

In data set [1], `C=CC(F)(F)[C@@H](Nc1c(Nc2cccc(C(=O)N(C)C)c2O)c(=O)c1=O)c1ccc(C)o1` returned an inhibitory constant (Ki) of 9 nM.

As to `Cc1ccc([C@H](Nc2c(Nc3cccc(C(=O)N(C)C)c3O)c(=O)c2=O)C(C)(F)F)o1`, the inhibition constant Ki amounted to 10 nM in data set [1] and 6 nM in data set [2]. The compound further gave an area under the curve (AUC) in data set [3] of 3 µM·h.

For `Cc1ccc([C@H](Nc2c(Nc3cccc(C(=O)N(C)C)c3O)c(=O)c2=O)C(C)(C)F)o1`, the values for the inhibitory constant (Ki) in data set [1] and in data set [2] were 8 nM and 24 nM, respectively.

For the compound `Cc1ccoc1[C@H](Nc1c(Nc2cccc(C(=O)N(C)C)c2O)c(=O)c1=O)C(C)(F)F`, the Ki in data set [1] is 12 nM; in data set [2], 30 nM.

Take `Cc1ccc([C@H](Nc2c(Nc3cccc(C(=O)N(C)C)c3O)c(=O)c2=O)[C@H](C)F)o1`: the values for the Ki in data set [1] and in data set [2] were 13 nM and 16 nM, respectively. Also, the AUC in data set [3] stood at 3.6 µM·h.

On to `Cc1ccc([C@H](Nc2c(Nc3cccc(C(=O)N(C)C)c3O)c(=O)c2=O)C(F)(F)F)o1`, for which the results for the Ki in data set [1] and in data set [2] were 5 nM and 9 nM, respectively. This compound also gave an AUC in data set [3] of 19.8 µM·h.

In the case of `Cc1coc([C@H](Nc2c(Nc3cccc(C(=O)N(C)C)c3O)c(=O)c2=O)[C@H](C)F)c1`, the inhibition constant Ki in data set [1] is 4 nM; in data set [2] it was 5 nM. The compound also displayed an exposure (AUC) in data set [3] of 3.6 µM·h.

Take `CN(C)C(=O)c1cccc(Nc2c(N[C@@H](c3ccc4c(c3)OCO4)C(F)(F)F)c(=O)c2=O)c1O`: the Ki in data set [1] turned out to be 5 nM; in data set [2] it was 8 nM. This compound yielded an exposure (AUC) in data set [3] of 9.17 µM·h.

For `CCC(F)(F)[C@@H](Nc1c(Nc2cccc(C(=O)N(C)C)c2O)c(=O)c1=O)c1ccc(C)o1`, the Ki was determined as 5 nM in data set [1] and 22 nM in data set [2].

Take `Cc1ccc([C@H](Nc2c(Nc3cccc(C(=O)N(C)C)c3O)c(=O)c2=O)C(F)(F)C(F)(F)F)o1`: the inhibition constant (Ki) in data set [1] was determined as 4 nM; in data set [2], 10 nM.

As to `CC(C)c1coc([C@H](Nc2c(Nc3cccc(C(=O)N(C)C)c3O)c(=O)c2=O)C(C)(F)F)c1`, the Ki in data set [1] is 2 nM; in data set [2] it was 25 nM.

For the compound `CN(C)C(=O)c1cccc(Nc2c(N[C@@H](c3cc(Cl)c(Cl)o3)C(F)(F)F)c(=O)c2=O)c1O`, the figures for the inhibition constant Ki in data set [1] and in data set [2] were 5 nM and 103 nM, respectively.

On to `Cc1coc([C@H](Nc2c(Nc3cccc(C(=O)N(C)C)c3O)c(=O)c2=O)C(C)(F)F)c1`, for which the Ki was determined as 14 nM in data set [1] and 6 nM in data set [2].

Turning to `CC[C@@H](Nc1c(Nc2cccc(C(=O)N(C)C)c2O)c(=O)c1=O)c1ccc(C)o1` [NAVARIXIN ANHYDROUS], the AUC in data set [3] was 49 µM·h.
